{"source": "patent US20070042452A1", "about": "“Detection of plasma ACE2” (priority 2005, published 2007)", "key": {"[1]": {"test_system": "ACE2 release from the plasma membrane of CHO cells expressing full-length human ACE2", "assay": "Shedding of ACE2 from Chinese hamster ovary cells (ACE2 activity in medium, QFS assay)", "assay_type": "cell-based", "details": "PMA 1 μM, 4 hr incubation", "experimental": "ACE2 catalytic activity was measured by cleavage of a quenched fluorescent substrate (QFS), namely (7-methoxycoumarin-4-yl)-acetyl-Ala-Pro-Lys(2,4-dinitrophenyl) as published in Vickers et al, 2002. The substrate is kept as stock at 5 mg/ml (7.14 mM) at −20° C. in DMSO, diluted 14.28-fold in ACE2 buffer (100 mM Tris-HCl, 1 M NaCl, pH 6.5) for a 500 μM working stock for assay. Assays were performed in black 96-well microtiter plates with 100 μl/well sample and ACE2 buffer in a final volume of 200 μl per well. In a separate series of wells, 100 μl/well sample, […] ACE2 buffer, and 20 μl/well of the specific ACE2 activity inhibitor, MLN-4760 (Millenium Pharmaceuticals, Cambridge, Mass., USA) at 100 mM is added. 50 μM QFS (20 μl/well) is then added to all wells.\nReactions proceeded at 37° C. within a temperature-controlled fluorescence microplate reader (FLUOStar Optima, BMG Labtech, Offenburg, Germany) and continuous readings of the liberated fluorescence taken over a 4 hr period (λex=320 nm, λem =405 nm). Specific ACE2 activity was calculated by subtraction of fluorescence in the presence of MLN-4760 inhibitor from the fluorescence in the absence of the MLN-4760 inhibitor.\nFull-length human ACE2 was expressed in Chinese hamster ovary (CHO) cells using a modified DEAE-Dextran transfection method. […]"}, "HepG2 cells": {"test_system": "HepG2 cells", "assay": "Shedding of ACE2 from HepG2 cells", "assay_type": "cell-based", "details": "endogenous ACE2, phorbol ester treatment, data not shown"}}, "note": "Entries after “also recorded” stand apart in the source; their conditions may differ.", "data": [{"smiles": "CCCCCCCCCCCCCC(=O)O[C@@H]1[C@@H](C)[C@@]2(O)[C@@H](C=C(CO)C[C@]3(O)C(=O)C(C)=C[C@@H]23)[C@@H]2C(C)(C)[C@]12OC(C)=O", "note": "[PMA]", "values": [{"measurement": "ACE2 release from the plasma membrane (ACE2 catalytic activity in medium)", "setting": "[1]", "value": "increased; also recorded: enhanced"}, {"measurement": "ACE2 release from the plasma membrane (ACE2 catalytic activity in medium)", "setting": "[1]; listed as phorbol ester", "value": "increased up to two-fold"}, {"measurement": "shedding of ACE2", "setting": "HepG2 cells", "value": "increased up to two-fold"}]}]}
